# Measurements from US20260224547A1, “COMPOSITIONS COMPRISING ANATABINE AND USES THEREOF” (Philip Morris Products S.A., priority 2021, published 2026).
# System: HEK-293, SH-SY5Y, primary human keratinocytes, THP-1 differentiated with PMA
# Test: Transcriptomics (microarray) after anatabine treatment of 4 cell systems
# Assay type: cell-based
# Protocol: To investigate the signalling pathways triggered by anatabine, 4 cell systems (HEK-293, SH-SY5Y, primary human keratinocytes, THP-1 differentiated with PMA) were treated with 4 concentrations of anatabine (100, 200, 300, 400 μM) for 6 hours, after which transcriptomics measurements were performed.
# HEK-293 is a human embryonic kidney cell line devoid of nicotinic receptors. It can be relatively easily transfected and therefore used as a tool to express various subtypes of nicotinic receptors or reporter genes such as NRF2-driven luciferase, which were also used in this study. HEK-293 were seeded in a cell culture medium consisting of EMEM, 10% FBS, 1% NEAA, 1% Sodium Pyruvate and 1% PenStrep. 60,000 cells were seeded per well of a 96-well plate.
# SH-SY5Y is a human bone marrow neuroblastoma cell line that has been used by researchers to investigate the potential anti-inflammatory effect of anatabine. SH-SY5Y were seeded in a cell culture medium consisting of 50% EMEM and 50% Ham's F12 nutrient and including 10% FBS, 1% PenStrep and 1% L-glutamine. 15,000 cells were seeded per well of a 96-well plate.
# Primary human keratinocytes have been included as a relevant cell system for skin. The batch of keratinocytes was selected in order to have healthy, non-smoker, 20-60 years old, Caucasian donors. The keratinocytes were seeded in a cell culture medium consisting of KGM-Gold Keratinocyte Growth Medium. 17,500 cells were seeded per well of a 96-well plate.
# The human leukaemia-derived monocytic cell line THP-1, is the most widely used in vitro model for primary human macrophage investigations. THP-1 cells were seeded in a cell culture medium consisting of RPMI, 10% FBS and 1% PenStrep and in the presence of 40 ng/ml phorbol 12-myristate 13-acetate (PMA). 100,000 cells were seeded per well of a 96-well plate, having a total volume of […] per well. 48 hours later the medium was changed to the same culture medium but without PMA, and the culture was left to rest for 24 h before treatment.
# All four cell systems were seeded in 96 well plates at a total volume of 190 μl per well to allow for a 20× compound stimulation with a volume of 10 μL. 24 hours after seeding—or in the case of THP-1, 24 h after changing to non-PMA medium—four cell systems were stimulated with anatabine (prepared at 20× the corresponding target concentration) to obtain a final molar concentration of 100, 200, 300, 400 μM anatabine.
# In order to generate the transcriptomics data, the four cell systems were exposed to various concentrations of anatabine (100, 200, 300, 400 μM) for 6 hours. The transcriptome of the cells was analysed by a microarray-based analysis.
# The cells were lysed using RLT BUFFER (Qiagen Hilden, Germany) for all cell types except the keratinocytes which were lysed with QIAZOL LYSIS REAGENT (Qiagen). RNA isolation was performed with RNEASY MICRO KIT (Qiagen). RNA quantification was assessed with a NANODROP 1000 (ThermoFisher Waltham, MA, USA) and quality of the total RNA was verified acquiring a profile with a 2100 BIOANALYZER (Agilent Technologies, Santa Clara, CA, USA), requiring an RIN number greater than 6.0. 50 ng of total RNA were processed as described in the TECAN/NUGEN OVATION RNA AMPLIFICATION SYSTEM V2 (Tecan Mannedorf, Switzerland). Human Genome U133 Plus 2.0 array were used for hybridization on a THERMOFISHER OVEN 645, washed on THERMOFISHER GENECHIP™ FLUIDICS STATIONS 450DX (protocol FS450-0004) and scanned on a THERMOFISHER GENECHIP™ SCANNER 3000 7G.
# Quality control check of all chips was done with the BIOCONDUCTOR affyPLM R package version 1.64. Following quality control procedures, differential gene expression analysis was performed using the BIOCONDUCTOR LIMMA R package version 3.44.3. Pairwise comparisons at the gene level, called systems response profiles (SRP), were computed by comparing each concentration-treatment with its respective vehicle control. […]
smiles,measurement,setting,value
"C1=CCC(c2cccnc2)NC1 (racemic) [anatabine, 1,2,3,6-Tetrahydro-2,3′-bipyridine]",Fold Change,"ATF3 gene, KEAT, anatabine 100 μM",0.2106
same,Fold Change,"ATF3 gene, KEAT, anatabine 200 μM",0.3169
same,Fold Change,"ATF3 gene, KEAT, anatabine 300 μM",1.893
same,Fold Change,"ATF3 gene, KEAT, anatabine 400 μM",1.185
same,Fold Change,"ATF3 gene, SHSY5Y, anatabine 100 μM",0.04701
same,Fold Change,"ATF3 gene, SHSY5Y, anatabine 200 μM",0.3038
same,Fold Change,"ATF3 gene, SHSY5Y, anatabine 300 μM",0.6207
same,Fold Change,"ATF3 gene, SHSY5Y, anatabine 400 μM",1.206
same,Fold Change,"ATF3 gene, THP1, anatabine 100 μM",−0.02648
same,Fold Change,"EEF2K gene, THP1, anatabine 300 μM",−0.3419
same,Fold Change,"EEF2K gene, THP1, anatabine 400 μM",−0.7245
same,Fold Change,"EID3 gene, HEK293, anatabine 100 μM",0.1833
same,Fold Change,"EID3 gene, HEK293, anatabine 200 μM",0.5345
same,Fold Change,"EID3 gene, HEK293, anatabine 300 μM",0.9247
same,Fold Change,"EID3 gene, HEK293, anatabine 400 μM",0.9528
same,Fold Change,"EID3 gene, KEAT, anatabine 100 μM",1.694
same,Fold Change,"EID3 gene, KEAT, anatabine 200 μM",1.995
same,Fold Change,"EID3 gene, KEAT, anatabine 300 μM",3.641
same,Fold Change,"EID3 gene, KEAT, anatabine 400 μM",3.12
same,Fold Change,"EID3 gene, SHSY5Y, anatabine 100 μM",0.2913
same,Fold Change,"EID3 gene, SHSY5Y, anatabine 200 μM",0.3156
same,Fold Change,"EID3 gene, SHSY5Y, anatabine 300 μM",0.6868
same,Fold Change,"EID3 gene, SHSY5Y, anatabine 400 μM",1.05
same,Fold Change,"EID3 gene, THP1, anatabine 100 μM",0.1121
same,Fold Change,"EID3 gene, THP1, anatabine 200 μM",0.4679
same,Fold Change,"EID3 gene, THP1, anatabine 300 μM",0.5698
same,Fold Change,"EID3 gene, THP1, anatabine 400 μM",1.615
same,Fold Change,"FAM53C gene, HEK293, anatabine 100 μM",0.3792
same,Fold Change,"FAM53C gene, HEK293, anatabine 200 μM",0.423
same,Fold Change,"FAM53C gene, HEK293, anatabine 300 μM",0.6969
same,Fold Change,"FAM53C gene, HEK293, anatabine 400 μM",0.7367
same,Fold Change,"FAM53C gene, KEAT, anatabine 100 μM",0.1269
same,Fold Change,"FAM53C gene, KEAT, anatabine 200 μM",0.2194
same,Fold Change,"FAM53C gene, KEAT, anatabine 300 μM",1.067
same,Fold Change,"FAM53C gene, KEAT, anatabine 400 μM",0.6853
same,Fold Change,"FAM53C gene, SHSY5Y, anatabine 100 μM",0.1212
same,Fold Change,"FAM53C gene, SHSY5Y, anatabine 200 μM",0.4283
same,Fold Change,"FAM53C gene, SHSY5Y, anatabine 300 μM",0.5427
same,Fold Change,"FAM53C gene, SHSY5Y, anatabine 400 μM",0.873
same,Fold Change,"FAM53C gene, THP1, anatabine 100 μM",0.144
same,Fold Change,"FAM53C gene, THP1, anatabine 200 μM",0.2515
same,Fold Change,"FAM53C gene, THP1, anatabine 300 μM",0.6296
same,Fold Change,"FAM53C gene, THP1, anatabine 400 μM",0.8729
same,Fold Change,"FBXO30 gene, HEK293, anatabine 100 μM",0.001539
same,Fold Change,"FBXO30 gene, HEK293, anatabine 200 μM",0.2872
same,Fold Change,"FBXO30 gene, HEK293, anatabine 300 μM",0.3586
same,Fold Change,"FBXO30 gene, HEK293, anatabine 400 μM",0.5949
same,Fold Change,"FBXO30 gene, KEAT, anatabine 100 μM",0.619
same,Fold Change,"FBXO30 gene, KEAT, anatabine 200 μM",0.8807
same,Fold Change,"FBXO30 gene, KEAT, anatabine 300 μM",1.832
same,Fold Change,"FBXO30 gene, KEAT, anatabine 400 μM",1.526
same,Fold Change,"FBXO30 gene, SHSY5Y, anatabine 100 μM",−0.5195
same,Fold Change,"FBXO30 gene, SHSY5Y, anatabine 200 μM",0.3153
same,Fold Change,"FBXO30 gene, SHSY5Y, anatabine 300 μM",0.5475
same,Fold Change,"FBXO30 gene, SHSY5Y, anatabine 400 μM",0.9269
same,Fold Change,"FBXO30 gene, THP1, anatabine 100 μM",0.002856
same,Fold Change,"FBXO30 gene, THP1, anatabine 200 μM",0.427
same,Fold Change,"FBXO30 gene, THP1, anatabine 300 μM",0.6595
same,Fold Change,"FBXO30 gene, THP1, anatabine 400 μM",1.224
same,Fold Change,"G0S2 gene, HEK293, anatabine 100 μM",−0.159
same,Fold Change,"G0S2 gene, HEK293, anatabine 200 μM",−0.1114
same,Fold Change,"G0S2 gene, HEK293, anatabine 300 μM",−0.6854
same,Fold Change,"G0S2 gene, HEK293, anatabine 400 μM",−0.7292
same,Fold Change,"G0S2 gene, KEAT, anatabine 100 μM",−0.3516
same,Fold Change,"G0S2 gene, KEAT, anatabine 200 μM",−0.5508
same,Fold Change,"G0S2 gene, KEAT, anatabine 300 μM",−1.361
same,Fold Change,"G0S2 gene, KEAT, anatabine 400 μM",−1.016
same,Fold Change,"G0S2 gene, SHSY5Y, anatabine 100 μM",−0.0648
